Results: patent US20220184164A1, “PREPARATIONS CONTAINING BERRY EXTRACTS FOR USE IN THE PROPHYLAXIS AND/OR TREATMENT OF VIRAL INFECTIONS CAUSED BY HERPESVIRIDAE” (Evonik Operations GmbH, priority 2019, published 2022)

Columns and labels:
HSV-1 = experiment: Anti-viral assay: GFP-encoding HSV-1 infection of pre-treated BHK cells, infected cells counted; assay type: cell-based, herpes simplex virus 1
Description: (§1) BHK cells were incubated with decreasing concentration of the solubilized test compounds for approx. 1 h. All concentrations were analyzed by six independent replicates on a black 96-well plate (PerkinElmer). Cells were infected with GFP-encoding wildtype HSV-1 virus and incubated for two days. Two days after infection, HSV-1-infected cells and GFP expressing cells were directly counted using the PerkinElmer Ensight system with optical cell culture plates. The instrument was controlled by […]. Anti-viral assays for HHV8 and mCMV were performed accordingly.
The cells were subsequently infected with GFP-encoding HSV at a multiplicity of infection of 2.5, and infected GFP-expressing cells were counted one day after infection using the PerkinElmer Ensight system. […] Thus, the sugar is not required as potential co-factor for drug uptake.

HHV-8 = experiment: Anti-viral assay: GFP-encoding HHV-8 infection, infected cells counted; assay type: cell-based, Herpes virus 8
Description: as §1
The concentrations of materials were again adjusted to the same levels of anthocyanins (except the single berry extracts). No treatment or only maltodextrin served as controls. The cells were subsequently infected with GFP-encoding HHV-8, and infected GFP-expressing cells were counted two days after infection using the PerkinElmer Ensight system.

[1] = system: HSV-1 related intracellular β-Amyloid deposition in SH-SY5Y (neuroblastoma) cells; experiment: β-Amyloid assay: intracellular deposition of β-Amyloid in HHV-1-infected SH-SY5Y cells (immunofluorescence, qualitative); assay type: cell-based; settings: 500, 250 and 125 μg/ml
Description: Samples were fixed using Histofix and permeabilized with 0.05% Triton X-100 in phosphate-buffered saline for 5 min. Blocking steps were performed with 3% bovine serum albumin for 1 h followed by primary antibody incubation with rabbit polyclonal anti-beta amyloid 1-42 and polyclonal goat anti-green fluorescent protein. Antibodies were diluted 1:100 and 1:1000, respectively, and were incubated overnight. To visualize β-Amyloid antibodies, donkey anti-rabbit AlexaFluor® 555 secondary antibodies were used (diluted 1:400); to detect the GFP antibodies donkey anti-goat AlexaFluor® 647 secondary antibodies (diluted 1:400) were used. The samples were then mounted in Fluoromount-G™ with DAPI and analyzed with the BZ-9000 BIOREVO System (Keyence).
Herpes virus infections and specifically HSV-1 infections are correlated to intracellular R-Amyloid and tau-protein deposition in cells of the CNS in progression of Alzheimer's disease. […] Therefore, in a first step the infectability of SH-SYSY neuroblastoma cells with HHV-1 was tested. After incubation of SH-SYSY cultures with HHV-1 (MOI=8), an infection rate of >90% (qualitatively) was detected that came along with high intracellular β-Amyloid deposition.

OC[C@H]1O[C@@H](Oc2cc3c(O)cc(O)cc3[o+]c2-c2ccc(O)c(O)c2)[C@H](O)[C@@H](O)[C@@H]1O [C3G, Cyanidin 3-glucoside]
inhibition of HSV-1 by single anthocyanins (HSV-1): Neither C3G nor D3Gal or Pet3G inhibited HSV-1

OC[C@H]1OC(Oc2cc3c(O)cc(O)cc3[o+]c2-c2cc(O)c(O)c(O)c2)[C@H](O)C(O)C1O (stereo partly drawn) [D3G, Delphinidin 3-glucoside]
viral inhibition of HHV-8 (in words) (HHV-8): identified as an active ingredient in Healthberry® 865 | inhibition of HSV-1 by single anthocyanins (HSV-1): decreased viral infectivity like Healthberry® 865

OC[C@H]1O[C@@H](Oc2cc3c(O)cc(O)cc3[o+]c2-c2cc(O)c(O)c(O)c2)[C@H](O)[C@@H](O)[C@H]1O [D3Gal, Delphinidin 3-galactoside]
inhibition of HSV-1 by single anthocyanins (HSV-1): Neither C3G nor D3Gal or Pet3G inhibited HSV-1

COc1cc(-c2[o+]c3cc(O)cc(O)c3cc2O[C@@H]2O[C@H](CO)[C@@H](O)[C@H](O)[C@H]2O)cc(O)c1O [Pet3G, Petunidin 3-glucoside]
inhibition of HSV-1 by single anthocyanins (HSV-1): Neither C3G nor D3Gal or Pet3G inhibited HSV-1

maltodextrin
infected and β-Amyloid-positive cells [1]: HHV-1-infected cells were mostly β-Amyloid-positive
